# Data from US8865894B2, “Oxazolidin-2-one compounds and uses thereof” (Novartis AG, priority 2012, dated 2014).
# Like-named read-outs stand apart in the source and are kept apart here.
# How the values were obtained:
# [1] = target: T1, human PI3Kα (Homo sapiens, UniProt P42336); assay: Biochemical PI3Kalpha (KinaseGlo luminescent kinase assay)
# T1 construct: made in house
# Experimental: Test compounds were dissolved in DMSO (10 mM) and transferred into 1.4 mL flat bottom or V-shaped Matrix tubes carrying a unique 2D matrix chip by individual Novartis compound hubs. The numbers of these chips were distinctively linked to Novartis Pharma Numbers. The stock solutions were stored at −20° C. if not used immediately. For the test procedure the vials were defrosted and identified by a scanner whereby a working sheet was generated that guided the subsequent working steps.
# Compounds were either manually diluted in DMSO for individual experiments (96 wells enabling 10 cpds at 8 (single points) concentrations) as described in or prepared as described below if tested for profiling in 384-wells. This format enabled the assay of maximally 40 individual test compounds at 8 concentrations (single points) including 4 reference compounds. The dilution protocol included the production of “pre-dilution plates”, “master plates” and “assay plates”.
# 96 polypropylene well plates were used as pre-dilution plates. A total of 4 pre-dilution plates were prepared including 10 test compounds each on the plate positions A1-A10, one standard compound at A11 and one DMSO control at A12. Programs have been written to run these pipetting steps on the HamiltonSTAR robots.
# Identical “assay plates” were then prepared by pipetting 50 nL each of compound dilutions of the “master plates” into 384-well “assay plates”. The compounds were mixed with 4.5 μL of assays components plus 4.5 μL enzyme corresponding to a 1:181 dilution enabling the final concentration of 10, 3.0, 1.0, 0.3, 0.1, 0.03, 0.01 and 0.003 μM, respectively. The preparation of the “master plates” was handled by the Matrix PlateMate Plus robot and replication of “assay plates” by the HummingBird robot.
# Catalytically active human PI3Kα, PI3Kβ, PI3Kδ, and mTOR were cloned, expressed and purified as described (Maira S M, Stauffer F, Brueggen J, Furet P, Schnell C, Fritsch C, Brachmann S, Chène P, de Pover A, Schoemaker K, Fabbro D, Gabriel D, Simonen M, Murphy L, Finan P, Sellers W, García-Echeverría C (2008), Mol Cancer Ther. 7:1851-63 and Maira S M, Pecchi S, Brueggen J, Huh K, Schnell C, Fritsch C, Nagel T, Wiesmann M, Brachmann S, Dorsch M, Chène P, Schoemaker K, De Pover A, Menezes D, Fabbro D, Sellers W, García-Echeverría C, Voliva C F (2011), Mol. Cancer Ther. accepted).
# The luminescence-based ATP detection reagent KinaseGlo was obtained from Promega, (Cat. No. V6714, Lot No. 236161) through Catalys, Wallisellen, Switzerland. (L-alpha-phosphatidylinositol (PI), Liver, Bovine) were obtained from Avanti Polar Lipid (Cat. No. 840042C, Lot#LPI-274), Phosphatidylinositol-4,5-bisphosphate (PIP(4,5)2 (Avanti, Cat. No. 840046×) or L-α-phosphatidylinositol (PI) was obtained from Avanti Polar Lipid (Cat. No. 840042C, Lot#LPI-274). L-α-Phosphatidylserine (PS) was from Avanti Polar Lipid (Cat. No. 840032C), n-OctylGlucoside Avanti Polar Lipid (Cat. No. 10634425001). Luminescence is a well established readout to determine ATP concentrations and can thus be used to follow the activity of many kinases regardless of their substrate. The Kinase Glo Luminescent Kinase Assay (Promega, Madison/Wis., USA) is a homogeneous HTS method of measuring kinase activity by quantifying the amount of ATP remaining in solution following a kinase reaction.
# 50 nL of compound dilutions were dispensed onto black 384-well low volume Non Binding Styrene (NBS) plates (Costar Cat. No. NBS#3676) as described in section 8.2. L-α-phosphatidylinositol (PI), provided as 10 mg/ml solution in methanol, was transferred into a glass tube and dried under nitrogen beam. It was then resuspended in 3% OctylGlucoside by vortexing and stored at 4° C. 5 μL of a mix of PI/OG with the PI3Ka and Pi3Kb subtypes were added. Kinase reactions were started by addition of 5 μl of ATP-mix containing in a final volume 10 μL 10 mM TRIS-HCl pH 7.5, 3 mM MgCl2, 50 mM NaCl, 0.05% CHAPS, 1 mM DTT and 1 μM ATP, and occurred at room temperature.
# [2] = tested on: A2058 cells; assay: Cell cycle G2/M arrest Cytospin assay to detect tubulin binding (off-target); assay type: cell-based; design: key: 0=no condensed DNA observed (indicating no off target activity); 1=(indicating weak off target activity); 2=(indicating medium off target activity); 3=large amount of condensed DNA observed (indicating strong off-target activity); settings: 5 μM test item, 24 hours
# Experimental: The off-target effect (evidence of tubulin binding) was measured as follows.
# Cell cycle G2/M arrest Cytospin assay to detect tubulin binding (off-target) binding activities of MAPP derivatives: 5×10^5 cells A2058 cells were plated in 6-well cluster, with 2 mL of DMEM (high Glucose containing 1% sodium pyruvate, 1% glutamin and 10% FCS). 18 hours later, the test items were added at a concentration of 5 μM (spiking 1 μL of a 10 mM solution of the test item). 24 hours later, the cells were trypsinized and transferred into a 15 mL conical tube. Cells are then pelleted by centrifugation, and resuspended with PBS/0 (containing 10% FCS). Cells are counted with a CASY counter, and each samples equilibrated to 1×10^6 cells/mL. […] The staining was visually assessed for the presence of condensed DNA and given a score where 0=no condensed DNA observed (indicating no off target activity), 1=(indicating weak off target activity), 2=(indicating medium off target activity), 3=large amount of condensed DNA observed (indicating strong off-target activity).
# [3] = biochemical, 1 μM ATP, mean of n measurements
# [4] = biochemical, 1 μM ATP, mean of n measurements, read-out: PI3Ka/ IC50
# T1 sequence (P42336 with tags, fused parts or gaps limits assumed): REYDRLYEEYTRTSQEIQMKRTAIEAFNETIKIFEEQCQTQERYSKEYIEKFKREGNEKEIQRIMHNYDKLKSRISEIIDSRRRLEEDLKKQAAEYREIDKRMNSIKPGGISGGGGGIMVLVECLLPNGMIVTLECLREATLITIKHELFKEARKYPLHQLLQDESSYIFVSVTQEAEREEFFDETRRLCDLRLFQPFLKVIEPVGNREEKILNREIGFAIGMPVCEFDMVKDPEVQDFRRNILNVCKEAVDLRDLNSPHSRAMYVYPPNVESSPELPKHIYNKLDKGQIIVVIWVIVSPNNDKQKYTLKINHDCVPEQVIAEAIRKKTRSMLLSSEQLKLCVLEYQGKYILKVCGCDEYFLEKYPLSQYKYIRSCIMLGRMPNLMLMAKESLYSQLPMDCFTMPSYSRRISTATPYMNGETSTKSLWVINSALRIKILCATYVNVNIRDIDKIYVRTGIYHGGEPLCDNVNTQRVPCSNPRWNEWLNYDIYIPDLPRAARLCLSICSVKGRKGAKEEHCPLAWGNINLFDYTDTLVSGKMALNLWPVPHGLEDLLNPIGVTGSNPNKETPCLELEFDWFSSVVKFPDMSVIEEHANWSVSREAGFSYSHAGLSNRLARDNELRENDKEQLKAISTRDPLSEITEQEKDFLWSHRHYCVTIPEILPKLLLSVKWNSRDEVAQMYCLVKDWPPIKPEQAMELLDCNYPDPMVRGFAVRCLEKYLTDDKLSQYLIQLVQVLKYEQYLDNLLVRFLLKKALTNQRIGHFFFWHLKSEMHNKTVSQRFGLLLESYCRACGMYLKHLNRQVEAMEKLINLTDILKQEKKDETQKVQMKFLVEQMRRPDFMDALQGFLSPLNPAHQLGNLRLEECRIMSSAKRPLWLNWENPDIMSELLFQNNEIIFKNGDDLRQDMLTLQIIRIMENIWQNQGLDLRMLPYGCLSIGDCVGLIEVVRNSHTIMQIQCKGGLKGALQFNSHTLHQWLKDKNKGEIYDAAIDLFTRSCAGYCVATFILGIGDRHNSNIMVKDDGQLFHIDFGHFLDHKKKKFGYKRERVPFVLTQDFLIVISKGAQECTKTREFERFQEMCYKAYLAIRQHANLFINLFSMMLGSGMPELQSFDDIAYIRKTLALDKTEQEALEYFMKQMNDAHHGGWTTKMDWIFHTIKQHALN
"PI3Ka/ IC50 [1, 3] [umol I-1]","Score (condensed DNA, G2/M arrest; off-target tubulin binding) [2]","IC50 [1, 4] [nM]","IC50 ([1]; a different, separate measurement, read-out: PI3Ka IC50, different, separate measurement (footnote)) [nM]",Compound
0.030,0,,,"C[C@H]1OC(=O)N(c2cc(-c3cnc(N)nc3C(F)(F)F)nc(N3CCOCC3)n2)[C@H]1COC=O [Example 12, Formic acid (4S,5R)-3-(2′-amino-2-morpholin-4-yl-4′-trifluoromethyl-[4,5′]bipyrimidinyl-6-yl)-5-methyl-2-oxo-oxazolidin-4-ylmethyl ester]"
0.008,0,,,"C[C@H]1COC(=O)N1c1cc(-c2cnc(N)nc2C(F)(F)F)nc(N2CCOCC2)n1 [Example 1, (S)-3-(2′-Amino-2-morpholin-4-yl-4′-trifluoromethyl-[4,5′]bipyrimidinyl-6-yl)-4-methyl-oxazolidin-2-one]"
,,26,,"Nc1ncc(-c2cc(N3C(=O)OC4C(O)CCC43)nc(N3CCOCC3)n2)c(C(F)(F)F)n1 (single isomer, unassigned) [Example 22B]"
0.023,,,,"CC1(C)OC(=O)N(c2cc(-c3cnc(N)nc3C(F)(F)F)nc(N3CCOCC3)n2)[C@H]1CO [Example 2, (S)-3-(2′-Amino-2-morpholin-4-yl-4′-trifluoromethyl-[4,5′]bipyrimidinyl-6-yl)-4-hydroxymethyl-5,5-dimethyl-oxazolidin-2-one]"
0.013,0,,,[2H]C1([2H])OC([2H])([2H])C([2H])([2H])N(c2nc(-c3cnc(N)nc3C(F)(F)F)cc(N3C(=O)O[C@H](C)[C@@H]3CO)n2)C1([2H])[2H] [Example 8]
0.057,0,,,"Nc1ncc(-c2cc(N3C[C@@H](CO)OC3=O)nc(N3CCOCC3)n2)c(C(F)(F)F)n1 [Example 14, (S)-3-(2′-Amino-2-morpholin-4-yl-4′-trifluoromethyl-[4,5′]bipyrimidinyl-6-yl)-5-hydroxymethyl-oxazolidin-2-one]"
0.017,0,,,"[2H]C1([2H])OC([2H])([2H])C([2H])([2H])N(c2nc(-c3cnc(N)nc3C(F)(F)F)cc(N3C(=O)OC[C@@H]3C)n2)C1([2H])[2H] [Example 17, (S)-3-(2′-amino-2-D8-morpholino-4′-(trifluoromethyl)-[4,5′-bipyrimidin]-6-yl)-4-methyloxazolidin-2-one]"
,0,5,< 3,"C[C@H]1C(CC(C)(C)O)OC(=O)N1c1cc(-c2cnc(N)nc2C(F)(F)F)nc(N2CCOCC2)n1 (mixture of isomers) [Example 26, (4S,5R)- and (4S,5S)-3-(2′-amino-2-morpholino-4′-(trifluoromethyl)-[4,5′-bipyrimidin]-6-yl)-5-(2-hydroxy-2-methylpropyl)-4-methyloxazolidin-2-one]"
0.009,0,,,"C[C@H]1OC(=O)N(c2cc(-c3cnc(N)nc3C(F)(F)F)nc(N3CCOCC3)n2)[C@H]1CO [Example 18, (4S,5R)-3-(2′-Amino-2-morpholin-4-yl-4′-trifluoromethyl-[4,5′]bipyrimidinyl-6-yl)-4-hydroxymethyl-5-methyl-oxazolidin-2-one]"
0.019,0,,,"Nc1ncc(-c2cc(N3C(=O)O[C@H]4COC[C@H]43)nc(N3CCOCC3)n2)c(C(F)(F)F)n1 [Example 21, (3aR,6aR)-3-(2′-amino-2-morpholino-4′-(trifluoromethyl)-[4,5′-bipyrimidin]-6-yl)-tetrahydrofuro[3,4-d]oxazol-2(3H)-one]"
0.038,3,,,"Nc1ncc(-c2cc(N3CCOC3=O)nc(N3CCOCC3)n2)c(C(F)(F)F)n1 [Example 11, 3-(2′-Amino-2-morpholin-4-yl-4′-trifluoromethyl-[4,5′]bipyrimidinyl-6-yl)-oxazolidin-2-one, reference compound]"
0.013,0,,,C[C@@H]1OC(=O)N(c2cc(-c3cnc(N)nc3C(F)(F)F)nc(N3CCOCC3)n2)[C@H]1CO [Example 6]
0.006,0,,,"C[C@H]1[C@@H](CCO)OC(=O)N1c1cc(-c2cnc(N)nc2C(F)(F)F)nc(N2CCOCC2)n1 [Example 23, (4S,5R)-3-(2′-Amino-2-morpholino-4′-(trifluoromethyl)-[4,5′-bipyrimidin]-6-yl)-5-(2-hydroxyethyl)-4-methyloxazolidin-2-one]"
0.030,0,,,"C[C@H]1CN(c2cc(-c3cnc(N)nc3C(F)(F)F)nc(N3CCOCC3)n2)C(=O)O1 [Example 16, (S)-3-(2′-Amino-2-morpholin-4-yl-4′-trifluoromethyl-[4,5′]bipyrimidinyl-6-yl)-5-methyl-oxazolidin-2-one]"
,,7,,"Nc1ncc(-c2cc(N3C(=O)OC4C(O)CCC43)nc(N3CCOCC3)n2)c(C(F)(F)F)n1 (single isomer, unassigned) [Example 22A]"
0.014,0,,,"Nc1ncc(-c2cc(N3C(=O)O[C@H]4CCCC[C@@H]43)nc(N3CCOCC3)n2)c(C(F)(F)F)n1 [Example 4, (3aS,7aS)-3-(2′-Amino-2-morpholin-4-yl-4′-trifluoromethyl-[4,5′]bipyrimidinyl-6-yl)-hexahydro-benzooxazol-2-one]"
0.021,0,,,"CC1(CO)COC(=O)N1c1cc(-c2cnc(N)nc2C(F)(F)F)nc(N2CCOCC2)n1 (racemic) [Example 3, 3-(2′-amino-2-morpholino-4′-(trifluoromethyl)-4,5′-bipyrimidin-6-yl)-4-(hydroxymethyl)-4-methyloxazolidin-2-one]"
0.384,,,,"Nc1ncc(-c2cc(N3C(=O)OC[C@@H]3CCO)nc(N3CCOCC3)n2)c(C(F)(F)F)n1 [Example 9, (S)-3-(2′-Amino-2-morpholin-4-yl-4′-trifluoromethyl-[4,5′]bipyrimidinyl-6-yl)-4-(2-hydroxy-ethyl)-oxazolidin-2-one]"
